We go through 29 molecules from ChEMBL document CHEMBL1781907, “Expeditious synthesis and biological evaluation of novel 2,N6-disubstituted 1,2-dihydro-1,3,5-triazine-4,6-diamines as potential antimalarials” (Eur J Med Chem, 2011).

The test system of series [1] is Plasmodium falciparum. Put plainly: Antimalarial activity against chloroquine and cycloguanil-resistant Plasmodium falciparum FCR-3/Gambia ring stage infected in human red blood cells assessed as inhibition of [3H]-hypoxanthine incorporation incubated 24 hrs before addition of [3H]-hypoxanthine measured after 24 hrs. It is filed as functional, cell-based.
Series [2] can be described thus: Toxicity at human RBC assessed as haemolysis at 50 uM. It is filed as cell-based. The following applies: erythrocyte.
For series [3], the system named is Plasmodium falciparum. Put plainly: Ratio of cycloguanil IC50 to compound IC50 for chloroquine and cycloguanil-resistant Plasmodium falciparum FCR-3/Gambia. It is filed as functional.

In general, IC50 refers to the concentration that inhibits the measured activity by half. Regarding `CC1(C)N=C(N)N=C(NCc2ccccc2)N1.Cl`, in the series with Plasmodium falciparum [1], the IC50 is 49.8 µM. For the same molecule, the Activity result in series [2] is on record as “Non-toxic”.
On the same counts, the results for `Cl.NC1=NC2(CCCCC2)NC(NCc2ccccc2)=N1` are 9.89 µM and “Non-toxic”.
Turning to `CC1(C)N=C(N)N=C(NCCc2ccc(Cl)cc2)N1.Cl`, the half-maximal inhibitory concentration (IC50) with Plasmodium falciparum [1] was found to be 16.6 µM. For the same molecule, the Activity entry in series [2] was “Non-toxic”.
On the same counts, the results for `Cl.NC1=NC(c2ccc([N+](=O)[O-])cc2)NC(NCCc2ccc(Cl)c(Cl)c2)=N1` (stereo unspecified) are 11.1 µM and “Non-toxic”.
With `Cl.NC1=NC(c2ccc(F)cc2)NC(NCCc2ccc(Cl)c(Cl)c2)=N1` (stereo unspecified), in the series with Plasmodium falciparum [1], the 50% inhibitory concentration (IC50) amounted to 8.41 µM. The Activity entry in series [2] is on record as “Non-toxic”.
Regarding `CC1(C)N=C(N)N=C(NCCCOc2ccc(Cl)cc2)N1.Cl`, the IC50 in the series with Plasmodium falciparum [1] came out at 11.3 µM. Besides, the Activity result in series [2] is recorded as “Non-toxic”.
The matching figures for `Cl.NC1=NC(c2ccccc2)NC(NCCCOc2ccc(Cl)cc2)=N1` (stereo unspecified): 7.11 µM and “Non-toxic”.
On the same counts, the results for `Cl.NC1=NC(c2ccc(C(F)(F)F)cc2)NC(NCCCOc2ccc(Cl)cc2)=N1` (stereo unspecified) are 5.54 µM and “Non-toxic”.
The matching figures for `Cl.NC1=NC(c2ccccc2)NC(NCCCOc2ccc(Cl)c(Cl)c2)=N1` (stereo unspecified): 6.73 µM and “Non-toxic”.
`Cl.NC1=NC(c2ccccc2)NC(NCCCOc2c(Cl)cc(Cl)cc2Cl)=N1` (stereo unspecified): in the series with Plasmodium falciparum [1], the IC50 was 4.32 µM. For the same molecule, the Activity entry in series [2] is reported as “Non-toxic”.
As for `Cl.NC1=NC(c2ccco2)NC(NCCCOc2ccc(Cl)cc2)=N1` (stereo unspecified), in the series on Plasmodium falciparum [1], the IC50 came to 0.99 µM. Also, in series [2], the Activity entry is listed as “Non-toxic”. For the same molecule, in the series on Plasmodium falciparum [3], the “Ratio IC50” value worked out at 5.
Consider `Cl.NC1=NC(c2ccc([N+](=O)[O-])cc2)NC(NCCCOc2ccc(Cl)cc2)=N1` (stereo unspecified), for which the IC50 with Plasmodium falciparum [1] was found to be 7.39 µM. Also, the Activity entry in series [2] was “Non-toxic”.
With `Cl.NC1=NC(c2ccccc2Cl)NC(NCCCOc2ccc(Cl)cc2)=N1` (stereo unspecified), the half-maximal inhibitory concentration (IC50) with Plasmodium falciparum [1] came out at 6.66 µM. The Activity entry in series [2] is reported as “Non-toxic”.
As for `Cl.NC1=NC(C2CCCCC2)NC(NCCCOc2ccc(Cl)cc2)=N1` (stereo unspecified), in the series with Plasmodium falciparum [1], the IC50 was determined as 4.59 µM. In series [2], the Activity entry is recorded as “Non-toxic”.
Regarding `Cl.NC1=NC2(CCCCC2)NC(NCCCOc2ccc(Cl)cc2)=N1`, the IC50 with Plasmodium falciparum [1] was determined as 7.94 µM. Also, the Activity entry in series [2] was “Non-toxic”.
On the same counts, the results for `COc1ccc(C2N=C(N)N=C(NCCCOc3ccc(Cl)cc3)N2)cc1.Cl` (stereo unspecified) are 6.66 µM and “Non-toxic”.
As for `CN(C)c1ccc(C2N=C(N)N=C(NCCCOc3ccc(Cl)cc3)N2)cc1.Cl` (stereo unspecified), the IC50 in the series with Plasmodium falciparum [1] worked out at 44.8 µM. Moreover, in series [2], the Activity result is “Non-toxic”.
On the same counts, the results for `Cl.NC1=NC(c2ccc(F)cc2)NC(NCCCOc2ccc(Cl)cc2)=N1` (stereo unspecified) are 6.21 µM and “Non-toxic”.
On to `Cl.NC1=NC(c2ccccc2)NC(NCCCSc2ccc(Cl)cc2)=N1` (stereo unspecified), for which the half-maximal inhibitory concentration (IC50) in the series on Plasmodium falciparum [1] amounted to 1.3 µM. Further, the Activity entry in series [2] is given as “Non-toxic”. In addition, the “Ratio IC50” value in the series with Plasmodium falciparum [3] was 5.
With `CC1(C)N=C(N)N=C(NCCCSc2ccc(Cl)cc2)N1.Cl`, in the series on Plasmodium falciparum [1], the IC50 was found to be 7.84 µM. Further, the Activity result in series [2] was “Non-toxic”.
Take `Cl.NC1=NC(c2ccccc2)NC(NCCCOc2ccccc2Cl)=N1` (stereo unspecified): the IC50 with Plasmodium falciparum [1] stood at 4.53 µM. The Activity result in series [2] was “Non-toxic”.
On the same counts, the results for `Cl.NC1=NC(c2ccccc2)NC(NCCCOc2ccc(Cl)cc2Cl)=N1` (stereo unspecified) are 4.52 µM and “Non-toxic”.
The matching figures for `Cl.NC1=NC(c2ccccc2)NC(NCCCOc2ccccc2F)=N1` (stereo unspecified): 10.8 µM and “Non-toxic”.
The matching figures for `Cl.NC1=NC(c2ccccc2)NC(NCCCOc2ccc([N+](=O)[O-])cc2)=N1` (stereo unspecified): 3.87 µM and “Non-toxic”.
Take `COc1ccc(OCCCNC2=NC(N)=NC(c3ccccc3)N2)cc1.Cl` (stereo unspecified): the IC50 in the series with Plasmodium falciparum [1] was 12.3 µM. Also, in series [2], the Activity result is given as “Non-toxic”.
The matching figures for `CC1(C)N=C(N)N=C(NCCCCOc2ccc(Cl)cc2)N1.Cl`: 7.2 µM and “Non-toxic”.
As to `Cl.NC1=NC(c2ccccc2)NC(NCCCCOc2ccc(Cl)cc2)=N1` (stereo unspecified), in the series with Plasmodium falciparum [1], the IC50 came out at 2.71 µM. Also, the Activity result in series [2] was “Non-toxic”. Also, the “Ratio IC50” value in the series with Plasmodium falciparum [3] is on record as 5.
Take `Cl.NC1=NC(c2ccccc2)NC(NCCCCCOc2ccc(Cl)cc2)=N1` (stereo unspecified): the IC50 with Plasmodium falciparum [1] was 1.36 µM. Also, the Activity entry in series [2] is given as “Non-toxic”. Moreover, the “Ratio IC50” value in the series with Plasmodium falciparum [3] was found to be 5.
`CC1(C)N=C(N)N=C(N)N1c1ccc(Cl)cc1` [CYCLOGUANIL]: the IC50 with Plasmodium falciparum [1] worked out at 5 µM.
